Laboratory results taken from patent US11442059B2, “Method for treating a chronic itch condition by administering small molecule MrgprX4 antagonists” (The Johns Hopkins University, priority 2017, dated 2022).
Entries after “also recorded” stand apart in the source; their conditions may differ. Starred links: 1 amine or outer side, 2 acyl side, 3 side chain; linkers in the order of their positions; H or OH if unused. Positions of bridges follow the written chain, without caps; N, C: chain ends. Non-standard residues stand in square brackets, D forms with d. Residues, ends and D or L forms follow the SMILES beside them. X1 = CC(=O)NC(C(=O)OC(C(C)C)C(N[*:1])C(=O)[*:2])C(O)C(C)C; PhLac = O=C(O)[CH](O)Cc1ccccc1; NMeT = CN[CH](C(=O)O)[CH](C)O; NMeA = CN[CH](C)C(=O)O; NMeDha = C=C(NC)C(=O)O

What was measured:
mice = assay: Acute itch behaviour after injection (scratching bouts); format: in vivo, mouse; details: for scratching / itch elicited by injection: WT mice; for itch elicited in Cluster KO animals: Cluster KO mice; for itch responses in WT versus Cluster KO animals: injection at nape or cheek
MRGPRX4 [1] = target: T1, MRGPRX4 (Homo sapiens, UniProt Q96LA9); assay: Fura 2-AM calcium imaging, EC50 determinations, MRGPRX4 HEK293 cells; format: cell-based; parameters: expressed in transfected cells; whole cells or crude membrane fraction; details: 10 μM pre-incubated 30 minutes; 50 μM bilirubin
Method: (§1) Cells were imaged in calcium imaging buffer (CIB; 10 mM HEPES, 1.2 mM NaHCO3, 130 mM NaCl, 3 mM KCl, 2.5 mM CaCl2, 0.6 mM MgCl2, 20 mM glucose, and 20 mM sucrose at pH 7.4 and 290-300 mOsm). To monitor changes in intracellular [Ca^2+] ([Ca^2+]i), cells were loaded with either Fura 2-AM (HEK293 cells) or Fluo 4-AM (DRG neurons and mast cells) for 30 min in the dark at 37° C. in CIB just prior to imaging. With Fura 2-AM, emission at 510 nm was monitored from excitation at both 340 nm and 380 nm. With Fluo 4-AM, emission at 520 nm was monitored from excitation at 488 nm. Cells were identified as responding if the intracellular [Ca^2+] rose by either 50% compared to baseline or 50% compared to the [Ca^2+]i change assayed during addition of 50 mM KCl (neurons only). Damaged, detached, high-baseline, and motion-activated cells were excluded from analysis.
(§2) In initial screens, HEK293 cells stably expressing the murine G-protein alpha-subunit Gα15, a unique Gα protein that non-selectively couples a large variety of GPCRs to phospholipase C^30, were plated on poly-D-lysine-coated coverslips and transiently transfected with constructs encoding the MRGRPR of interest. 12-24 h later, cells were loaded with the Fura 2-AM. Unless otherwise specified, compounds were perfused into the imaging chamber for approximately thirty seconds after a baseline period was established. Response was then monitored at 5 s intervals for an additional 60 s.
HEK293 cells stably expressing either MRGPRA1, MRGPRX4, and MRGRPC11 were seeded in poly-D-lysine-coated 96-well plates at 10,000 cells/well. Cells were loaded with Fura 2-AM, washed twice, and maintained in CIB. Haem metabolites were freshly dissolved in DMSO in dim light and then diluted into a buffer comprised of 20 mM Tris and 150 mM NaCl at pH 8.8. Potential changes in pH were evaluated prior to each experiment. EC50 values were determined from dose-responses performed in triplicate, repeated 2-4 times. […]

MrgprA1 = target: T2, MrgprA1 (Mus musculus, UniProt Q91WW5); assay: Fura 2-AM calcium imaging, EC50 and IC50 determinations, MRGPRA1 HEK293 cells; format: cell-based; details: 10 μM pre-incubated 30 minutes; 50 μM bilirubin
T2 construct: expressed in transfected cells; whole cells or crude membrane fraction
T2 sequence (Q91WW5 1-304): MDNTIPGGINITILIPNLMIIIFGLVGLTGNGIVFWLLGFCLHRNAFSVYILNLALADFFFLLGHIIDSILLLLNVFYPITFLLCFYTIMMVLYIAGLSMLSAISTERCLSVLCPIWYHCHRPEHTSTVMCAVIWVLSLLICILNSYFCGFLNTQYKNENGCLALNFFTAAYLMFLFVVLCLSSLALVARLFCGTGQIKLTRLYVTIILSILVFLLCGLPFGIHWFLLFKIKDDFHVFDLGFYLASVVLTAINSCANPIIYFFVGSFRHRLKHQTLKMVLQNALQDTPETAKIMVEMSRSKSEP
Method: as §1, §2
HEK293 cells stably expressing either MRGPRA1, MRGPRX4, and MRGRPC11 were seeded in poly-D-lysine-coated 96-well plates at 10,000 cells/well. Cells were loaded with Fura 2-AM, washed twice, and maintained in CIB. Haem metabolites were freshly dissolved in DMSO in dim light and then diluted into a buffer comprised of 20 mM Tris and 150 mM NaCl at pH 8.8. Potential changes in pH were evaluated prior to each experiment. EC50 values were determined from dose-responses performed in triplicate, repeated 2-4 times. To determine potential antagonism by QWF against bilirubin, cells were treated with varying doses of QWF for 1 min in CIB prior to application of agonist.

MRGPRX4 [2] = target: T1, MRGPRX4; assay: MrgprX4 antagonist assay vs bilirubin (HTRF IP-One inositol phosphate); format: cell-based; parameters: expressed in transfected cells; details: blockade of bilirubin (100 μM) induced signal; test compound typically 10 μM
Method: (§3) Intracellular inositol phosphate levels were determined using a 384-well homogenous time-resolved fluorescence assay (HTRF IP-One®, CisBio International, Bagnols/Ceze, France, Cat #62IPAPEJ) as described by the manufacturer's one-step protocol. Briefly, HEK293 cells stably expressing recombinant human MrgprX4 were harvested and suspended in phenol-red free OptiMEM (ThermoFisher) and plated into 384-well assay plates (Perkin Elmer, Proxiplate-Plus® Cat #6008280) at 15,000 cells/well in a volume of 10 μL/well. These cell plates were then incubated overnight at 37° C. in a humidified CO2 incubator. Test compounds were dissolved in DMSO and were further diluted in Assay Buffer (Tris.HCl 40 mM, NaCl 300 mM, LiCl 350 mM, pH 8) and added to the cells (2 μL addition, final assay concentration typically 10 μM). In this configuration, the assay can detect agonists and inverse agonists. For detection of antagonists, test compound addition was followed by addition of bilirubin (2 μL addition, final assay concentration 100 μM). Regardless of the assay format (agonist/inverse agonist vs. antagonist) plates were then incubated for 1 h, at 37° C., followed by 30 minutes at room temperature. Lysis/detection reagents (6 uL/well) were then added and plates incubated for 1 h at room temperature before reading on an HTRF compatible reader such as a Perkin Elmer EnVision® or BMG Pherastar®.

MRGPRX4 [3] = target: T1, MRGPRX4; assay: MrgprX4 inverse agonist assay (HTRF IP-One inositol phosphate); format: cell-based; parameters: expressed in transfected cells; details: HEK293 cells stably expressing recombinant human MrgprX4, final assay concentration typically 10 μM
Method: as §3

129S1/SvImJ mice = assay: SJS/TEN mouse model (daily oral gavage of causative drug); format: in vivo; details: mouse, in vivo
Method: Eight-to-ten week old male mice were orally gavaged with either causative drugs (LTG, allopurinol, oxcarbazepine) suspended in saline or saline once daily. The dosage was based on milligrams per kilogram of animal's body weight as indicated (for example, LTG 50 mg kg^−1 body weight). Skin, eyes, and mucosa, survival, body weight, physical and gross appearances (particularly on the eyes, mucosa and skins) were monitored every day.
The animals were deeply anesthetized with pentobarbital and transcardially perfused with 20 ml 0.1 M cold PBS (pH 7.4) followed with 25 ml of cold 4% paraformaldehyde (PFA). Paw skin, eyelid, spleen, lymph nodes were dissected out. postfixed in 4% PFA for more than two hours, and cryoprotected in a 20% followed by 30% sucrose solution for 24 hours each at 4° C. Tissue samples were embedded in the optimal cutting temperature (OCT) and frozen before being serially cut into 20 μm sections and placed onto slides. Hematoxylin and eosin (H&E) staining was performed using standard procedures according to the manufacturer's instruction VITROVIEW™ H&E Stain Kit). To quantify amount of apoptotic cells, terminal deoxynucleotidyl transferase dUTP nick end labeling (TUNEL) assay, a method for detecting DNA fragmentation that results from apoptotic cells by labeling the terminal end of nucleic acids, was performed by following the protocol of Apo-BrdU DNA Fragmentation Assay Kit (Biovision). To estimate the total cell number in tissue, all nuclei were stained with propidium iodide. Digital photographs were captured under confocal fluorescent microscopy at x200 magnification (Zeiss LSM 700). The number of TUNEL-positive nuclei were counted and reported as a percentage over the number of total nuclei observed in the skin's epidermis layer.

T1 sequence (Q96LA9 whole entry): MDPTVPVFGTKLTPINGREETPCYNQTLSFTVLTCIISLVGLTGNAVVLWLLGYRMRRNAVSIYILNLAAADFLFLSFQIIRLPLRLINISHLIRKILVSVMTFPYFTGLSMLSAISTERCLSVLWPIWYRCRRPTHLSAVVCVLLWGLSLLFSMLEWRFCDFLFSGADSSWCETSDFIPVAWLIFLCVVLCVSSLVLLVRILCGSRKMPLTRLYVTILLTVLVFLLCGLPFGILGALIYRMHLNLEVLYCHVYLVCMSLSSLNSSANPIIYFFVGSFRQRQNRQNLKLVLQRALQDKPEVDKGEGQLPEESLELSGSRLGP

CCC1=C(C)C(Cc2[nH]c(Cc3[nH]c(CC4NC(=O)C(C)=C4CC)c(C)c3CCC(=O)O)c(CCC(=O)O)c2C)NC1=O (stereo not shown) [urobilinogen]
scratching / itch elicited by injection (mice): able to stimulate scratching behavior

FMRF: an MRGPRA1 agonist
scratching / itch elicited by injection (mice): caused itch

C=C1C(=O)NC(C)C(=O)N(C)C(C)C(=O)NC(C(OC(=O)C(NC(C)=O)C(O)C(C)C)C(C)C)C(=O)N(C)C(C(C)OC)C(=O)OC(C)C(NC(C)=O)C(=O)OC(Cc2ccccc2)C(=O)N1C (stereo not shown) [YM-254890] (Ac-T[PhLac][NMeDha]A[NMeA][X1][NMeT](Me); ester 1-C; configuration not given here)
effect on bilirubin-induced calcium responses, MRGPRX4 (MRGPRX4 [1]): inhibited
effect on bilirubin-induced calcium responses, MRGPRA1 (MrgprA1): abolished

O=C(O)COCCN1CCN(C(c2ccccc2)c2ccc(Cl)cc2)CC1 (stereo not shown) [cetirizine]
effect on bilirubin-induced scratching (mice; 30 mg/kg, i.p., thirty minutes prior to bilirubin): failed to temper scratching behavior

C=CC1=C(C)/C(=C/C2=NC(=C\c3[nH]c(/C=C4\NC(=O)C(C)=C4C=C)c(C)c3CCC(=O)O)/C(CCC(=O)O)=C2C)NC1=O [biliverdin]
scratching / itch elicited by injection (mice): did not induce scratching

C=CC1=C(C)c2cc3[n-]c(cc4[n-]c(cc5nc(cc1n2)C(C)=C5C=C)c(C)c4CCC(=O)O)c(CCC(=O)O)c3C.O.[Fe+2] [hematin]
itch elicited in Cluster KO animals (mice): absent
scratching / itch elicited by injection (mice): elicited itch

O=C(NCc1cc2ccccc2[nH]1)c1cc(-c2ccccn2)nc2ccc(Br)cc12 [compound 3]
Antagonist Activity (MRGPRX4 [2]): ++++ (a blockade of bilirubin induced signal of at least 85%)
Inverse Agonist Activity (MRGPRX4 [3]): +++ (an activity of from 2 standard deviations to less than 3 standard deviations below baseline)

Oc1ncnc2[nH]ncc12 [allopurinol]
eye manifestation (129S1/SvImJ mice): can also induce eye manifestation

lysophosphatidic acid [LPA]
itch responses in WT versus Cluster KO animals (mice): comparable itch responses

CN1CC[C@]23c4c5ccc(O)c4O[C@H]2[C@@H](O)C=C[C@H]3[C@H]1C5 [morphine]
itch responses in WT versus Cluster KO animals (mice): comparable itch responses

stercobilin
itch elicited in Cluster KO animals (mice): absent
scratching / itch elicited by injection (mice): elicited itch; also recorded: able to stimulate scratching behavior

Cc1nc(-c2ccnn2Cc2ccc(Cl)cc2)[nH]c1-c1ccccc1 [compound 2]
Antagonist Activity (MRGPRX4 [2]): ++++ (a blockade of bilirubin induced signal of at least 85%)
Inverse Agonist Activity (MRGPRX4 [3]): ++++ (an activity of at least 3 standard deviations below baseline)

C[C@@H](NC(=O)[C@@H](N)Cc1ccc(O)cc1)C(=O)NCC(=O)N(C)[C@@H](Cc1ccccc1)C(=O)NCCO [DAMGO]
itch responses in WT versus Cluster KO animals (mice): comparable itch responses

Cc1c(C(=O)NCc2ccccc2C(F)(F)F)ncn1Cc1ccc(Cl)cc1 [compound 1]
Antagonist Activity (MRGPRX4 [2]): ++++ (a blockade of bilirubin induced signal of at least 85%)
Inverse Agonist Activity (MRGPRX4 [3]): ++++ (an activity of at least 3 standard deviations below baseline)

Nc1nc2ccccc2n1CCOc1ccccc1Cl [compound 4]
Antagonist Activity (MRGPRX4 [2]): +++ (a blockade of bilirubin induced signal of from 70% to less than 85%)
Inverse Agonist Activity (MRGPRX4 [3]): +++ (an activity of from 2 standard deviations to less than 3 standard deviations below baseline)
